From PubChem BioAssay (NCI)
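Assay format: 96-well plates, 48-hour exposure. The concentration for full growth arrest is given as TGI.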

What was measured:
Test in all cases: DTP human tumour cell line panel, 48 h
BT-549 breast = system: BT-549 breast
HCT-116 colon = system: HCT-116 colon
HOP-62 NSCLC = system: HOP-62 NSCLC
HOP-92 NSCLC = system: HOP-92 NSCLC
HS 578T breast = system: HS 578T breast
HT29 colon = system: HT29 colon
IGROV1 ovarian = system: IGROV1 ovarian
MDA-MB-231 breast = system: MDA-MB-231 breast
NCI-H226 lung = system: NCI-H226 lung
SF-268 CNS = system: SF-268 CNS
SK-MEL-5 melanoma = system: SK-MEL-5 melanoma
SN12C renal = system: SN12C renal
SNB-19 CNS = system: SNB-19 CNS
SNB-75 CNS = system: SNB-75 CNS
SW-620 colon = system: SW-620 colon
T-47D breast = system: T-47D breast
UACC-257 melanoma = system: UACC-257 melanoma

Structure (SMILES) | TGI (BT-549 breast) [µM] | TGI (HCT-116 colon) [µM] | TGI (HOP-62 NSCLC) [µM] | TGI (HOP-92 NSCLC) [µM] | TGI (HS 578T breast) [µM] | TGI (HT29 colon) [µM] | TGI (IGROV1 ovarian) [µM] | TGI (MDA-MB-231 breast) [µM] | TGI (NCI-H226 lung) [µM] | TGI (SF-268 CNS) [µM] | TGI (SK-MEL-5 melanoma) [µM] | TGI (SN12C renal) [µM] | TGI (SNB-19 CNS) [µM] | TGI (SNB-75 CNS) [µM] | TGI (SW-620 colon) [µM] | TGI (T-47D breast) [µM] | TGI (UACC-257 melanoma) [µM]
CC(=O)OC[C@@]1(C)[C@@H]2[C@@H]3[C@@]4(CO[C@]3(C)C(=O)[C@@]3(OC(C)=O)C[C@H](C)[C@H](OC(C)=O)[C@@H]3[C@H]4OC(C)=O)[C@H](OC(=O)c3ccccc3)C[C@@H]21 | > 100 | > 100 | > 100 | > 100 | > 100 | > 100 | > 100 | > 100 | > 100 | > 100 | > 100 | > 100 | > 100 | > 100 | > 100 | > 100 | > 100
CN(C)/C=N/c1cc(=O)n(C)c(=O)n1C | > 100 | > 100 | > 100 | > 100 | > 100 | > 100 | > 100 | > 100 | > 100 | > 100 | > 100 | > 100 | > 100 | > 100 | > 100 | > 100 | > 100
O=C(NCCc1ccccn1)c1ccc2cc(C(=O)N3CC(CCl)c4ccc([N+](=O)[O-])cc43)[nH]c2c1 (centres undefined) | > 100 | > 100 | 48.4 | 52.1 | > 100 | > 100 | > 100 | > 66.8 | > 100 | > 100 | > 100 | > 100 | 87.5 | > 100 | > 100 | > 100 | > 100
O=C(O[C@H](/C=C/c1ccccc1)P1(=O)N(Cc2ccccc2)[C@H]2CCCC[C@@H]2N1Cc1ccccc1)c1ccccc1 | > 100 | 17 | > 100 | 5.86 | > 100 | > 100 | 18.6 | 25.7 | 7.85 | > 100 | 4.1 | 14.5 | > 100 | – | > 100 | 3.86 | > 100
CCc1cccc(C(C)C)c1NC(=O)C(=O)Nn1c(=S)[nH]c2ccccc2c1=O | > 100 | > 100 | > 100 | > 100 | > 100 | > 100 | > 100 | > 100 | > 100 | > 100 | > 100 | > 100 | – | > 100 | > 100 | > 100 | > 100
CC(=O)Nn1c(Cc2ccc(Cl)cc2)nn(C)c1=O | > 100 | > 100 | > 100 | > 100 | > 100 | > 100 | > 100 | > 100 | > 100 | > 100 | > 100 | > 100 | > 100 | > 100 | > 100 | > 100 | > 100
c1ccc(C2(c3cc4ccccc4[nH]3)OCCO2)nc1 | > 100 | > 100 | > 100 | > 100 | > 100 | > 100 | > 100 | > 100 | > 100 | > 100 | > 100 | – | > 100 | > 100 | > 100 | > 100 | > 100
Cc1cccc2c(N)c3cccc(C(=O)NCCNCCN)c3nc12 | 33.3 | > 42.6 | > 46.3 | > 71.8 | 24.6 | 91.2 | > 100 | 36.1 | – | 1.27 | > 58.4 | – | 33.8 | 4.88 | > 100 | > 86.1 | 99.3
COC(=O)C1=C(C)NC(CF)=C(C(=O)OC)C1c1cccc2c(=O)c3ccccc3oc12 (centres undefined) | > 100 | > 100 | > 100 | 35.3 | > 100 | > 100 | 18.9 | > 100 | > 100 | 63.6 | > 100 | > 100 | – | > 100 | > 100 | > 100 | > 100
COc1cc2c(cc1OC)C1CN3CCCC3C(O)C1c1cc(OC)c(OC)cc1-2 (centres undefined) | > 100 | > 100 | > 100 | > 100 | > 100 | > 100 | > 100 | > 100 | – | > 100 | > 100 | > 100 | > 100 | – | > 100 | > 100 | > 100
CC(NC1=NCCO1)c1ccsc1 (centres undefined) | > 100 | 34.1 | – | 92.5 | 33.9 | 42.7 | > 100 | 35.6 | > 100 | – | 40.1 | – | > 100 | 47.3 | 43.9 | > 100 | 40.2
CC1CCC2C(C)C(OC(=O)CCC(=O)O)OC3OC4(C)CCC1C32OO4 (centres undefined) | > 100 | 16.3 | > 100 | 31 | > 100 | > 100 | 23.1 | > 100 | – | > 100 | 17.7 | > 100 | > 100 | > 100 | > 100 | > 100 | > 100
c1ccc(CN2C3C4N(Cc5ccccc5)C2C2N(Cc5ccccc5)C(C(N2Cc2ccccc2)N4Cc2ccccc2)N3Cc2ccccc2)cc1 | > 100 | > 100 | > 100 | > 100 | > 100 | > 100 | > 100 | > 100 | > 100 | > 100 | > 100 | > 100 | – | > 100 | > 100 | > 100 | > 100
O=C(c1ccc(Cl)c(Cl)c1)N(C(=S)OC12CC3CC(CC(C3)C1)C2)c1ccccc1 | > 100 | 68.8 | > 100 | > 100 | > 100 | > 100 | – | > 100 | > 100 | > 100 | 40.1 | > 100 | > 100 | > 100 | > 100 | > 100 | > 100
